{"source": "ChEMBL document CHEMBL1157539", "about": "“Thousands of chemical starting points for antimalarial lead identification” (Nature, 2010)"}
{"test_system": "Plasmodium falciparum", "test": "GSK_TCMDC: Inhibition of Plasmodium falciparum 3D7 in whole erythrocytes, using parasite LDH activity as an index of growth.", "format": "functional, organism-based", "conditions": "Plasmodium falciparum, 3D7", "units": {"XC50": "nM"}}
{"smiles": "c1cc(CNCCN2CCNCC2)cc(-c2ccc(-c3nc4ccccc4[nH]3)cc2)c1", "XC50": 1080}
{"smiles": "Cc1cc(NCC2CCN(CC3CCCCC3)C2)nc(Nc2ccc(Br)cc2)n1", "note": "(centres undefined)", "XC50": 879}
{"smiles": "CN1CCC(Oc2ccc(CN3CC[C@H](NC(=O)c4ccc(Cl)c(F)c4)C3)c3ccccc23)C1", "note": "(some centres undefined)", "XC50": 738}
{"smiles": "COc1c(C2CCN(CCCCNC(=O)c3cccc(-c4ccc(C(F)(F)F)cc4)c3)CC2)ccc2c1CCCC2", "XC50": 777}
{"smiles": "Cc1nc(C)c(-c2ccc(-c3ccc(F)cc3)cc2)c(O)c1Cl", "XC50": 655}
{"smiles": "CC(C)CN(c1nc(C(=O)NNC(=O)[C@H](CC2CC2)NC(=O)c2cc3cc(OCCN(C)C)ccc3o2)cs1)C1CC1", "XC50": 1030}
{"smiles": "COc1ccccc1CCNc1nc(C)cc(N[C@@H](Cc2ccccc2)C(=O)NCCOc2ccccc2)n1", "XC50": 1210}
{"smiles": "NCC1CCCN1Cc1cccc(-c2ccc(-c3nc4ccccc4[nH]3)s2)c1", "note": "(centres undefined)", "XC50": 1040}
{"smiles": "CC(C)(CN)c1nc(-c2ccc(Cl)c(O)c2)c(-c2ccncc2)[nH]1", "XC50": 756}
{"smiles": "CS(=O)(=O)Nc1cccc(-c2cnc3[nH]cc(-c4ccc(CN)cc4)c3c2)c1", "XC50": 986}
{"smiles": "CC(C)c1ccc(CN2CCC(NC(=O)c3ccc(-c4cccc(F)c4)s3)CC2)cc1", "XC50": 1330}
{"smiles": "COc1ccc(OCc2ccccn2)c(C2CCN(CCCCNC(=O)c3ccc(NC(=O)c4ccc(Cl)cc4)cc3)CC2)c1", "XC50": 764}
{"smiles": "O=C(Nc1ccc(OC(F)(F)F)cc1)NC1CCN(c2ccnc3ccccc23)CC1", "XC50": 297}
{"smiles": "N#CC(c1ccc(F)cc1)c1ccc2c(C(F)(F)F)cc(C(F)(F)F)nc2n1", "note": "(centres undefined)", "XC50": 726}
{"smiles": "CC(=O)Nc1ccc(CN(Cc2ccc(F)cc2)Cc2cccc(Oc3ccccc3)c2)cc1", "XC50": 943}
{"smiles": "CCOC(=O)c1c(-c2ccccc2)nc2c(sc3ccccc32)c1O", "XC50": 375}
{"smiles": "CN(C)C(=S)N/N=C1/C(=O)Nc2ccccc21", "XC50": 1050}
{"smiles": "O=C1Nc2ccccc2/C1=N/NC(=S)N1CCOCC1", "XC50": 910}
{"smiles": "Oc1ccc(CCNc2nc(NCc3cccc(OCc4cccc(F)c4)c3)nc(N3CCNCC3)n2)cc1", "XC50": 1340}
{"smiles": "O=C(Cc1ccc(-n2cnnn2)cc1)N(Cc1cncn1Cc1cccc(C(F)(F)F)c1)CC1CC1", "XC50": 962}
{"smiles": "Cc1cccc2c3c([nH]c12)C1(CCN(CCc2ccccc2)CC1)NC(C(=O)NCc1ccccc1)C3", "note": "(centres undefined)", "XC50": 1000}
{"smiles": "Cc1cc(Nc2ncc3c(n2)N(C2CCC2)CC3)ccc1N1CCN(C)CC1", "XC50": 1190}
{"smiles": "COc1cc(NC(=O)N2CCc3cc(OC)c(OCCN4CCCCC4)cc32)cc(C(F)(F)F)c1", "XC50": 1150}
{"smiles": "COc1ccc2cc(-c3nc(-c4c(Cl)cccc4Cl)[nH]c3-c3ccnc(NCCC4CCCN4C)c3)ccc2c1", "note": "(centres undefined)", "XC50": 1030}
{"smiles": "O=C(Cn1c(CCc2cccc(F)c2F)nc(=O)c2ccccc21)N(Cc1ccc(-c2ccc(C(F)(F)F)cc2)cc1)C1CCN(C2=NCCS2)CC1", "XC50": 1330}
{"smiles": "Cc1ccc(CC(C)NCC(O)c2cccc(Br)c2)cc1", "note": "(centres undefined)", "XC50": 802}
{"smiles": "COc1ccc(OCCCCON2C(=N)N=C(N)NC2(C)C)cc1", "XC50": 3.2}
{"smiles": "CN1CCN(c2ccnc3ccc(NC(=O)Nc4ccc(-c5ccccc5)cc4)cc23)CC1", "XC50": 776}
{"smiles": "O=C(O)C[C@H](NC(=O)c1cc(-c2ccc3c(c2)OCO3)no1)C(=O)O.O=C(O)C[C@H](NC(=O)c1conc1-c1ccc2c(c1)OCO2)C(=O)O", "XC50": 194}
{"smiles": "N#Cc1ccc(-c2ccc(C(=O)NCCCCN3CCC(n4cnc5ccccc54)CC3)cc2)cc1", "XC50": 910}
{"smiles": "O=C(N/C=N/c1cc([N+](=O)[O-])c(-c2ccncc2)n1-c1ccccc1)c1cccc(O)c1", "XC50": 331}
{"smiles": "O=C1NC(=S)N/C1=C/C=C/c1ccc([N+](=O)[O-])o1", "XC50": 1070}
{"smiles": "Cc1nc(-c2cccc(Nc3nccc(NCC(O)c4cccc(C(F)(F)F)c4)n3)c2)cs1", "note": "(centres undefined)", "XC50": 627}
{"smiles": "Cc1cccc2nc(-c3cccc(-c4cccc(CN5CCC(CO)CC5)c4)c3)[nH]c12", "XC50": 724}
{"smiles": "Cn1cc(CN2CCC(OC(c3ccccc3)c3ccc(Cl)cc3)CC2)cn1", "note": "(centres undefined)", "XC50": 839}
{"smiles": "CCCC(C)Nc1nc(C)cc(N[C@@H](CC(C)C)C(=O)NCCc2ccccc2)n1", "note": "(some centres undefined)", "XC50": 1360}
{"smiles": "Cc1ccc(CNC(=O)c2cc3c(=O)n4ccccc4nc3n(CCCN3CCOCC3)c2=N)cc1", "XC50": 1090}
{"smiles": "O=C(N[C@H]1CCN(CCc2ccc(O[C@H]3CCNC3)c(Br)c2)C1)c1ccc(Cl)c(Cl)c1", "XC50": 658}
{"smiles": "CC(=O)Nc1cccc(-c2cn(-c3ccc(OCc4cccc(F)c4)c(Cl)c3)c3ncncc23)c1", "XC50": 70.9}
{"smiles": "CNC(=O)c1cc(S(=O)(=O)N2CCN(c3ccccn3)CC2)c(C)s1", "XC50": 1160}
{"smiles": "COc1cc(OC)nc(-c2cccc(NC(=O)c3ccc4c(=O)n(CCN5CCCCC5)cnc4c3)c2)n1", "XC50": 744}
{"smiles": "CCOCCCn1c(=N)c(C(=O)NCc2ccc(F)cc2)cc2c(=O)n3cccc(C)c3nc21", "XC50": 526}
{"smiles": "O=C(NCC1CC1)C1CCN(C(c2ccccc2)c2cc(F)cc(F)c2)CC1", "note": "(centres undefined)", "XC50": 380}
{"smiles": "COc1ccc2nccc([C@@H](O)CN3CCC(NCC(=O)Nc4cc(F)cc(F)c4)CC3)c2n1", "XC50": 912}
{"smiles": "O=C(Nc1ccc(Cn2ncc(N3CCNCC3)c(Cl)c2=O)cc1)Nc1ccc(-c2ccccc2)cc1", "XC50": 591}
{"smiles": "Cc1ccc(CN2CCCCC(NC(=O)c3cc4ccccc4s3)C2)cc1", "note": "(centres undefined)", "XC50": 900}
{"smiles": "COc1cccc(C=NN=c2cc(C)[nH]c3ccccc23)c1", "XC50": 937}
{"smiles": "CC1(C)C(=O)Nc2ccccc2N1C(=O)CN1CCN(c2ccccc2O)CC1", "XC50": 1070}
{"smiles": "O=C(C=Cc1ccc(Cl)c(Cl)c1)NCCCCCN1CCC(CCNC(=O)/C=C/c2ccccc2)CC1", "XC50": 783}
{"smiles": "CCc1cc(=O)[nH]c(-n2nc(C)cc2NC(=O)CC(c2ccccc2)c2ccccc2)n1", "XC50": 964}
{"smiles": "N=C(N)NC(=O)Nc1cc(Br)c(Br)c(Br)c1", "XC50": 809}
{"smiles": "CN(C)CCNCc1ccc(-c2ccc3c(Nc4ccc(F)cc4Cl)ccnc3c2)o1", "XC50": 145}
{"smiles": "COc1ccc(-c2ccc(NC(=O)c3ccc(Cl)cc3)cc2)cc1CN1CCCN(C)CC1", "XC50": 648}
{"smiles": "COc1ccc(-c2ccc(NC(=O)c3ccc(C#N)cc3)cc2)cc1CN1CCC(O)CC1", "XC50": 581}
{"smiles": "c1ccc(CCNCc2ccc(-c3ccc(CNc4ccc5ncccc5c4)cc3)cc2)cc1", "XC50": 916}
{"smiles": "c1ccc(-c2nc(Nc3nc4ccccc4[nH]3)[nH]c2-c2ccccc2)cc1", "XC50": 619}
{"smiles": "COc1c(C2CCN(CCCCNC(=O)c3ccc(-c4ccc(Cl)cc4)c(O)c3)CC2)ccc2c1CCCC2", "XC50": 226}
{"smiles": "COc1cc(CCNc2nc(NCc3cccc4ccccc34)nc(N3CCC(N)CC3)n2)ccc1O", "XC50": 787}
{"smiles": "CCCCCN1CCC(NC(=O)c2ccc(C(=O)Nc3ccc(C(C)C)cc3)cc2)C1", "note": "(centres undefined)", "XC50": 954}
{"smiles": "N#CCCN1CCN(Cc2cccc(-c3ccc(-c4nc5cc(C(F)(F)F)ccc5[nH]4)cc3)c2)CC1", "XC50": 744}
{"smiles": "CCOc1cc(OCC)c2ccccc2c1CNCCCCCCNCc1c(OCC)cc(OCC)c2ccccc12", "XC50": 305}
{"smiles": "CCC(Nc1noc(-c2c(-c3ccccc3)noc2C)n1)c1ccccc1", "note": "(centres undefined)", "XC50": 973}
{"smiles": "CC[C@H](C)CNC(=O)c1cccc(-c2cccc(CNCC3CNCCCO3)c2)n1", "note": "(some centres undefined)", "XC50": 1080}
{"smiles": "COc1cccc2cc(C(=O)N[C@@H](CC(C)C)C(=O)N[C@H](/C=N/N(C)C(=O)OC(C)(C)C)CC(=O)OC(C)(C)C)oc12", "XC50": 654}
{"smiles": "C#CCCC(=O)Nc1cccc(-c2cccc(-c3nc4cccc(C)c4[nH]3)c2)c1", "XC50": 736}
{"smiles": "Cn1nc(C(F)(F)F)c(-c2ccc(F)cc2)c1NC(=O)Nc1ccccc1", "XC50": 804}
{"smiles": "O=C(Nc1ccc2[nH]c(-c3ccc4nc(NC(=O)C5CCCCC5)sc4c3)nc2c1)C1CCCCC1", "XC50": 612}
{"smiles": "CCCC(=O)Nc1ccc(OCCCCN(CC(C)(C)C)c2ccc(C#N)c(C(F)(F)F)c2)cc1", "XC50": 1350}
{"smiles": "COc1c(C2CCN(CCCCNC(=O)c3ccc(-c4ccc(C#N)cc4)nc3)CC2)ccc2c1CCCC2", "XC50": 530}
